The target in assay [1] is T1, c-Met/cFms chimeric receptor in c-Met/cFms/NIH3T3 cells (Homo sapiens, UniProt P08581).
T1 construct: The transmembrane/cytoplasmic domain fragment of c-Met (nucleotides 933 to 1390); expressed in transfected cells; the other entry of the earlier key: CSF1R (P07333, Macrophage colony-stimulating factor 1 receptor)
The experiment in a line: Cell-based assay for c-Met autophosphorylation (ELISA). The following applies: compounds 1 h at 37° C., M-CSF (600 ng/ml) stimulation 10 min. From the text: To generate a chimeric cDNA clone of c-Met with cFms, the extracellular domain of colony stimulating factor 1 receptor (CSF1R encoded by cFms gene) was fused with the transmembrane and cytoplasmic domain of c-Met. Reverse-transcribed RNA from human placenta was used as template to clone c-Met. The transmembrane/cytoplasmic domain fragment of c-Met (nucleotides 933 to 1390) containing a NotI site at both 5′- and 3′-end was generated by polymerase chain reaction (PCR) using following two oligonucleotides;
The resulting c-Met cDNA was cloned into pCR2.1-TOPO vector (c-Met/pCR2.1-TOPO). The extracellular domain fragment of cFms (nucleotides 1 to 512) containing BamHI site at 5′-end and NotI site at 3′-end was generated from human placenta cDNA by PCR using two oligonucleotides;
The resulting cFms cDNA was cloned into pcDNA3.1 vector (Invitrogen) using the BamHI and NotI sites (cFms/pcDNA3.1). To generate complete chimeric construct, the c-Met fragment (transmembrane and cytoplasmic domain) was digested with NotI sites (in c-Met/pCR2.1-TOPO vector) and then subcloned into cFms/pcDNA3.1 vector by NotI site (c-Met/cFms/pcDNA3.1).
NIH3T3 cells were grown in DMEM supplemented with 10% fetal bovine serum. NIH3T3 cells were transfected with c-Met/cFms/pcDNA3.1 vector alone using the calcium phosphate method according to the manufacturer's instructions. Three days after transfection, cells were selected with G418 (0.4 mgml^−1) for 14 days and the expression of c-Met chimeric receptor in the G418-resistant colonies of NIH3T3 (c-Met/cFms/NIH3T3) cells was analyzed by immunoblot. Autophosphorylation of c-Met induced by the stimulation with M-SCF, the ligand for CSF1R, was analyzed by immunoprecipitation and immunoblot, and prominent stable transfectant was selected for c-Met autophosphorylation assay. […]
c-Met/cFms/NIH3T3 cells were plated at 1×10^5 cells/well in collagen-coated 96-well microtitre plates and grown 24 h under standard culture conditions, followed by serum starvation for 1 h. The cells were incubated with compounds for 1 h at 37° C. and followed by M-CSF (600 ngml^−1) stimulation for 10 min at 37° C. The media was removed and the cells were lysed with 120 ul/well of lysis buffer (20 mM Tris-HCl pH8.0, 137 mM NaCl, 2 mM EDTA, 10% glycerol, 1% Triton X-100, 1 mM Na3VO4 and Protease Inhibitor Cocktail (Complete mini EDTA-free, Roche)). Then 100 ul/well of lysate was transferred to the antibody-coated (50 ng/well goat anti-cFms antibody in PBS) ELISA plate and incubated overnight at 4° C. Plates were washed five times with PBST (PBS containing 0.05% Tween-20). Primary antibody (biotin-conjugated anti-phosphotyrosine monoclonal antibody, PIERCE) was diluted 1:10,000 in PBST containing 1% BSA, added (100 ul/well) and incubated for 2 h at room temperature. After washing the plates five times with washing buffer, 100 ul/well of HRP-conjugated streptavidin (PIERCE) in PBST containing 1% BSA was added and incubated for 30 min at room temperature. After washing five times with PBST, 100 ul/well of SuperSignal ELISA Femto Substrate (PIERCE) was added and incubated for almost 1 min at room temperature. Chemiluminescence was measured using Wallac 1420 multilabel counter.
The IC50 was determined by using XLfit software (IDBS) with four-parameters, sigmoidal dose-response equation.

Assay [2] deals with T2, human Met Kinase (His6-GST fusion, aa 956-1390) (Homo sapiens, UniProt P08581).
T2 construct: His6 (N); GST (Glutathione-S-Transferase) (N); made in house; host or cells: baculovirus expression system in Sf9 cells
T2 sequence (P08581 956-1390): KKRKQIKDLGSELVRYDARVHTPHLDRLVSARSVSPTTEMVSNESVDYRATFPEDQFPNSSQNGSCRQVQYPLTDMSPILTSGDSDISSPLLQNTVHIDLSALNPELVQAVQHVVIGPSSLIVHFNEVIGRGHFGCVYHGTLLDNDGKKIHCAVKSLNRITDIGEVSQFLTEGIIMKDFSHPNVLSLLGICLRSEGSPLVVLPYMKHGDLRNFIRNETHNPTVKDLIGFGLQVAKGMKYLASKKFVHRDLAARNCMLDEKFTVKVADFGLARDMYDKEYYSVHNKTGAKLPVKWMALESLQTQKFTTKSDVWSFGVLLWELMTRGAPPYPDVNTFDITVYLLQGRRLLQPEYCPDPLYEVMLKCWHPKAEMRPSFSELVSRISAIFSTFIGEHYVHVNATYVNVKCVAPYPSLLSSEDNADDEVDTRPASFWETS
The experiment in a line: In vitro screen: kinase assay of purified Met kinase. In kind it is biochemical. The following applies: purified Met 1 nM, 10 μM ATP, 1 μM peptide substrate, 1 hour at room temperature; read-out: pIC50 values at the c-Met receptor (in vitro screen results) (converted). How it is done:
The peptide substrate, Biotin-aminohexyl-EEEEYFELVAKKKK-amide was purchased from SynPep Solid sample is dissolved at approximately 2.5 mM in water (concentration determined by amino acid analysis) and aliquots stored at −20° C.
Met Kinase: A fusion protein consisting of His6-tagged Glutathione-S-Transferase (GST) and amino acid residues 956-1390 of human Met Kinase (aa 956-1390 of Entrez Protein Accession # EAL24359.1 (met proto-oncogene (hepatocyte growth factor receptor) [Homo sapiens])) from “www.ncbi.nlm.nih.gov/entrez/”) is purified from baculovirus expression system in Sf9 cells using Ni chelate column, GSH column, followed by size exclusion chromatography. Purity greater than 90%, estimated by SDS-PAGE, is achieved. Samples in 25 mM HEPES pH 7.5, 100 mM NaCl, 0.1 mM EDTA are stored at −80° C. until use.
Assays are performed in 96 well (Costar, Catalog No. 3789) or 384 well plates (Costar, Catalog No. 3705). Assay conditions for the peptide phosphorylation reaction (in 10, 20, 25, or 40 μl volume) mix are 100 mM Hepes buffer, pH 7.4; 0.1 mgml^−1 BSA; 5 mM MgCl2; 1 mM DTT; 10 μM ATP; purified Met (1 nM final); and 1 μM peptide substrate. Compounds, titrated in DMSO, are evaluated at concentrations ranging from 50 μM to 0.2 nM. […] Reactions are incubated for 1 hour at room temperature and are stopped by addition of detection reagents containing, at final detection volume, 12.5 mM EDTA; 100 mM Hepes; 0.1 mg/ml BSA; 8 nM Streptavidin APC (Perkin Elmer catalog #CR130-150); 1 nM Europium-labelled anti-phosphotyrosine antibody (Perkin Elmer catalog #AD0067). Under the assay conditions defined above, the Km (apparent) for ATP is determined to be 40 μM.
The data for compound dose responses were plotted as % Inhibition, calculated with the data reduction formula 100*(1−[(U1−C2)/(C1−C2)]), versus concentration of compound, where U is the unknown value, C1 is the average control value obtained for DMSO, and C2 is the average control value obtained for 0.05M EDTA. Data were fitted to the curve described by: y=((Vmax*x)/(K+x)) where Vmax is the upper asymptote and K is the IC50. The results for each compound were recorded as pIC50 calculated as follows: pIC50=−Log 10(K).

This note sets out measurements from patent publication US20100016307A1, “NOVEL COMPOUNDS” (priority 2006, published 2010).

Molecules are shown by their SMILES.

T1 sequence (P08581 with tags, fused parts or gaps): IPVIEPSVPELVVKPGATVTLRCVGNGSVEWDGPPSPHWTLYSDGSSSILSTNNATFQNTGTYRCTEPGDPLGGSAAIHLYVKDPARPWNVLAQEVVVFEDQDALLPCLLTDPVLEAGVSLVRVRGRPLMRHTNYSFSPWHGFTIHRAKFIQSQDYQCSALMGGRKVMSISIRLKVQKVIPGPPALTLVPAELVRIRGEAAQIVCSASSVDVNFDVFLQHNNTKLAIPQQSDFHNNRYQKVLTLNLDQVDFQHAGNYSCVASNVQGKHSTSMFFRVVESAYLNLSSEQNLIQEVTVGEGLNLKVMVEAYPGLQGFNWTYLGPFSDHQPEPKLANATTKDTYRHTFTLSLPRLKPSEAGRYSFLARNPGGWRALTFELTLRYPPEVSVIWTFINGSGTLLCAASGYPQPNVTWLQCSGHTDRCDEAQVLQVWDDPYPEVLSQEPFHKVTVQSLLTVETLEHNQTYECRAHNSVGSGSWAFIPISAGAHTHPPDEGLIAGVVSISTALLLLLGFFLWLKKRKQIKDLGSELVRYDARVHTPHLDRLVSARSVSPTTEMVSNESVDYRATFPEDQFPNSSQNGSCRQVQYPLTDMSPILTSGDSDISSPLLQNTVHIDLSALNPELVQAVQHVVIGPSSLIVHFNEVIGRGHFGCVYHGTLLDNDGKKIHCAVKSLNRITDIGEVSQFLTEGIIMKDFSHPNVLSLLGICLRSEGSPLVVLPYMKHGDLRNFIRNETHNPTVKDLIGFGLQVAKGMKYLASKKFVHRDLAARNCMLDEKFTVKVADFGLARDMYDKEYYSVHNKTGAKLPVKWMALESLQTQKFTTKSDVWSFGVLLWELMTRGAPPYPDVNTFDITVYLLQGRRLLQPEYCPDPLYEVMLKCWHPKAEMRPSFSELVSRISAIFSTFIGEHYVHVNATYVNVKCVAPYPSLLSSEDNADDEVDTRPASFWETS

As for `CN(C)c1ccc(CNC(=O)c2cc3c(Oc4ccc(NC(=O)C5(C(=O)Nc6ccc(F)cc6)CC5)cc4)ccnc3[nH]2)cc1` [Example 11, N^1-[4-({2-[({[4-(Dimethylamino)phenyl]methyl}amino)carbonyl]-1H-pyrrolo[2,3-b]pyridin-4-yl}oxy)phenyl]-N^1-(4-fluorophenyl)-1,1-cyclopropane dicarboxamide], in assay [1], the IC50 is 1 to 3.16 µM.

Turning to `O=C(NCCO)c1cc2c(Oc3ccc(NC(=O)C4(C(=O)Nc5ccc(F)cc5)CC4)cc3)ccnc2[nH]1` [Example 7, N^1-(4-Fluorophenyl)-N^1-{4-[(2-{[(2-hydroxyethyl)amino]carbonyl}-1H-pyrrolo[2,3-b]pyridin-4-yl)oxy]phenyl}-1,1-cyclopropanedicarboxamide], the IC50 in assay [2] is < 0.01 µM. As to `CS(=O)(=O)CCNC(=O)c1cc2c(Oc3ccc(NC(=O)C4(C(=O)Nc5ccc(F)cc5)CC4)cc3)ccnc2[nH]1` [Example 1, N^1-(4-Fluorophenyl)-N^1-(4-{[2-({[2-(methylsulfonyl)ethyl]amino}carbonyl)-1H-pyrrolo[2,3-b]pyridin-4-yl]oxy}phenyl)-1,1-cyclopropane dicarboxamide], the IC50 in assay [2] was < 0.01 µM.

For `NC(=O)CNC(=O)c1cc2c(Oc3ccc(NC(=O)C4(C(=O)Nc5ccc(F)cc5)CC4)cc3)ccnc2[nH]1` [Example 8, N^1-{4-[(2-{[(2-Amino-2-oxoethyl)amino]carbonyl}-1H-pyrrolo[2,3-b]pyridin-4-yl)oxy]phenyl}-N^1-(4-fluorophenyl)-1,1-cyclopropanedicarboxamide], the IC50 in assay [2] was < 0.01 µM. The same measure, in the same setting: in the case of `CN(C)CCCNC(=O)c1cc2c(Oc3ccc(NC(=O)C4(C(=O)Nc5ccc(F)cc5)CC4)cc3)ccnc2[nH]1` [Example 5, N^1-(4-{[2-({[3-(Dimethylamino)propyl]amino}carbonyl)-1H-pyrrolo[2,3-b]pyridin-4-yl]oxy}phenyl)-N^1-(4-fluorophenyl)-1,1-cyclopropane dicarboxamide] it was < 0.01 µM. With `O=C(Nc1ccc(F)cc1)C1(C(=O)Nc2ccc(Nc3ccnc4[nH]c(-c5ccccc5)cc34)cc2)CC1` [Example 22, N^1-(4-Fluorophenyl)-N^1-{4-[(2-phenyl-1H-pyrrolo[2,3-b]pyridin-4-yl)amino]phenyl}-1,1-cyclopropanedicarboxamide], in assay [1], the IC50 was 3.16 to 31.6 µM. With `CCOC(=O)c1cc2c(Nc3ccc(NC(=O)C4(C(=O)Nc5ccc(F)cc5)CC4)cc3)ccnc2[nH]1` [Example 17, Ethyl 4-[(4-{[(1-{[(4-fluorophenyl)amino]carbonyl}cyclopropyl)carbonyl]amino}phenyl)amino]-1H-pyrrolo[2,3-b]pyridine-2-carboxylate], the IC50 in assay [1] lay within 1 to 3.16 µM.

As for `CS(=O)(=O)CCNC(=O)c1cc2c(Nc3ccc(NC(=O)C4(C(=O)Nc5ccc(F)cc5)CC4)cc3)ccnc2[nH]1` [Example 21, N^1-(4-Fluorophenyl)-N^1-(4-{[2-({[2-(methylsulfonyl)ethyl]amino}carbonyl)-1H-pyrrolo[2,3-b]pyridin-4-yl]amino}phenyl)-1,1-cyclopropane dicarboxamide], the IC50 in assay [1] lay within 3.16 to 31.6 µM. The molecule `O=C(NCCN1CCOCC1)c1cc2c(Nc3ccc(NC(=O)C4(C(=O)Nc5ccc(F)cc5)CC4)cc3)ccnc2[nH]1` [Example 19, N^1-(4-Fluorophenyl)-N^1-(4-{[2-({[2-(4-morpholinyl)ethyl]amino}carbonyl)-1H-pyrrolo[2,3-b]pyridin-4-yl]amino}phenyl)-1,1-cyclopropane dicarboxamide] displayed an IC50 in assay [1] of 1 to 3.16 µM. Regarding `O=C(NCCc1c[nH]cn1)c1cc2c(Oc3ccc(NC(=O)C4(C(=O)Nc5ccc(F)cc5)CC4)cc3)ccnc2[nH]1` [Example 9], the IC50 in assay [2] was < 0.01 µM. For `O=C(Nc1ccc(F)cc1)C1(C(=O)Nc2ccc(Nc3ccnc4[nH]ccc34)cc2)CC1` [Example 15, N^1-(4-Fluorophenyl)-N^1-[4-(1H-pyrrolo[2,3-b]pyridin-4-ylamino)phenyl]-1,1-cyclopropanedicarboxamide], the IC50 in assay [2] was 0.1 to 1 µM. On to `COc1ccccc1CNC(=O)c1cc2c(Oc3ccc(NC(=O)C4(C(=O)Nc5ccc(F)cc5)CC4)cc3)ccnc2[nH]1` [Example 12, N^1-(4-Fluorophenyl)-N^1-[4-({2-[({[2-(methyloxy)phenyl]methyl}amino)carbonyl]-1H-pyrrolo[2,3-b]pyridin-4-yl}oxy)phenyl]-1,1-cyclopropane dicarboxamide], for which the IC50 in assay [1] fell in the range of 1 to 3.16 µM. For `O=C(NCCc1c[nH]cn1)c1cc2c(Nc3ccc(NC(=O)C4(C(=O)Nc5ccc(F)cc5)CC4)cc3)ccnc2[nH]1` [Example 20, N^1-(4-Fluorophenyl)-N^1-(4-{[2-({[2-(1H-imidazol-4-yl)ethyl]amino}carbonyl)-1H-pyrrolo[2,3-b]pyridin-4-yl]amino}phenyl)-1,1-cyclopropane dicarboxamide], the IC50 in assay [1] was in the range of 3.16 to 31.6 µM. Molecule `O=C(NCCN1CCNCC1)c1cc2c(Oc3ccc(NC(=O)C4(C(=O)Nc5ccc(F)cc5)CC4)cc3)ccnc2[nH]1` [Example 3, N^1-(4-Fluorophenyl)-N^1-(4-{[2-({[2-(1-piperazinyl)ethyl]amino}carbonyl)-1H-pyrrolo[2,3-b]pyridin-4-yl]oxy}phenyl)-1,1-cyclopropane dicarboxamide] returned an IC50 in assay [1] of 1 to 3.16 µM. On the same count and under the same terms, in the case of `COc1ccccc1NC(=O)c1cc2c(Oc3ccc(NC(=O)C4(C(=O)Nc5ccc(F)cc5)CC4)cc3)ccnc2[nH]1` [Example 13, N^1-(4-Fluorophenyl)-N^1-(4-{[2-({[2-(methyloxy)phenyl]amino}carbonyl)-1H-pyrrolo[2,3-b]pyridin-4-yl]oxy}phenyl)-1,1-cyclopropane dicarboxamide] it was 3.16 to 31.6 µM.
